According to ChEMBL document CHEMBL5543092, “Design, synthesis, and biological characterization of proteolysis targeting chimera (PROTACs) for the ataxia telangiectasia and RAD3-related (ATR) kinase” (Eur J Med Chem, 2024):
Activity calls are given as the source filed them. No cut-off for these calls is given here.

Assays:
[1] = target: T1, von Hippel-Lindau disease tumor suppressor/Serine/threonine-protein kinase ATR (Homo sapiens) (UniProt Q13535+P40337); assay: PROTAC activity at ATR/VHL in patient derived human MIA PaCa-2 cells assessed as protein degradation at 2 uM measured after 24 hrs by immunoblot analysis relative to untreated control; assay type: cell-based
[2] = target: T1, von Hippel-Lindau disease tumor suppressor/Serine/threonine-protein kinase ATR (Homo sapiens); assay: PROTAC activity at ATR/VHL in patient derived human MIA PaCa-2 cells assessed as protein degradation at 5 uM measured after 24 hrs by immunoblot analysis relative to untreated control; assay type: cell-based
[3] = Chemical stability of the compound in at pH 7.4 measured at 72 hrs by HPLC based non-enzymatic stability assay; assay type: physicochemical; details: buffer, read-out: Stability
[4] = Chemical stability of the compound in at pH 7.4 measured at 48 hrs by HPLC based non-enzymatic stability assay; assay type: physicochemical; details: buffer, read-out: Stability
[5] = Chemical stability of the compound in at pH 7.4 measured at 12 hrs by HPLC based non-enzymatic stability assay; assay type: physicochemical; details: buffer, read-out: Stability
[6] = Chemical stability of the compound in at pH 7.4 measured at 24 hrs by HPLC based non-enzymatic stability assay; assay type: physicochemical; details: buffer, read-out: Stability
[7] = tested on: HEK293; assay: Cytotoxicity against human HEK293 cells assessed as cell viability at 50 uM incubated for 24 hrs by Alamar Blue reagent based assay relative to control; assay type: functional; details: read-out: Activity
[8] = Chemical stability of the compound in at pH 7.4 measured at 6 hrs by HPLC based non-enzymatic stability assay; assay type: physicochemical; details: buffer, read-out: Stability
[9] = target: T2, Protein cereblon/Serine/threonine-protein kinase ATR (Homo sapiens) (UniProt Q13535+Q96SW2); assay: PROTAC activity at ATR/CRBN in patient derived human MIA PaCa-2 cells assessed as reduction in protein level at 1 uM measured after 24 hrs by immunoblot analysis relative to untreated control; assay type: cell-based
[10] = tested on: MIA PaCa-2; assay: Effect on CRBN expression in patient derived siCRBN transfected human MIA PaCa-2 cells at 5 uM measured after 24 hrs by immunoblot analysis; assay type: functional, cell-based
[11] = target: T2, Protein cereblon/Serine/threonine-protein kinase ATR (Homo sapiens); assay: PROTAC activity at ATR/CRBN in patient derived human MIA PaCa-2 cells assessed as reduction in protein level at 5 uM measured after 24 hrs by immunoblot analysis relative to untreated control; assay type: cell-based; set-up: scale not given: the % may be the effect or the level left
[12] = target: T2, Protein cereblon/Serine/threonine-protein kinase ATR (Homo sapiens); assay: PROTAC activity at ATR/CRBN in patient derived human MIA PaCa-2 cells assessed as reduction in protein level at 2 uM measured after 3 hrs in presence of 50 nM bortezomib by immunoblot analysis; assay type: cell-based
[13] = tested on: MIA PaCa-2; assay: Effect on CRBN expression in patient derived siCRBN transfected human MIA PaCa-2 cells at 2 uM measured after 24 hrs by immunoblot analysis; assay type: functional, cell-based
[14] = target: T2, Protein cereblon/Serine/threonine-protein kinase ATR (Homo sapiens); assay: PROTAC activity at ATR/CRBN in human HeLa cells assessed as reduction in protein level at 500 nM measured after 24 hrs by immunoblot analysis relative to untreated control; assay type: cell-based; set-up: scale not given: the % may be the effect or the level left
[15] = tested on: HeLa; assay: Effect on ATM expression in human HeLa cells at 500 nM incubated for 24 hrs by immunoblot analysis; assay type: functional, cell-based
[16] = target: T2, Protein cereblon/Serine/threonine-protein kinase ATR (Homo sapiens); assay: PROTAC activity at ATR/CRBN in human HeLa cells assessed as reduction in p-ATR level at 500 nM measured after 24 hrs by immunoblot analysis relative to untreated control; assay type: cell-based; set-up: scale not given: the % may be the effect or the level left
[17] = target: T2, Protein cereblon/Serine/threonine-protein kinase ATR (Homo sapiens); assay: PROTAC activity at ATR/CRBN in patient derived human MIA PaCa-2 cells assessed as reduction in p-ATR (T1989) level at 2 uM measured after 24 hrs by immunoblot analysis relative to control; assay type: cell-based
[18] = target: T2, Protein cereblon/Serine/threonine-protein kinase ATR (Homo sapiens); assay: PROTAC activity at ATR/CRBN in patient derived human MIA PaCa-2 cells assessed as reduction in protein level at 2 uM measured after 24 hrs by immunoblot analysis relative to untreated control; assay type: cell-based; set-up: scale not given: the % may be the effect or the level left
[19] = target: T2, Protein cereblon/Serine/threonine-protein kinase ATR (Homo sapiens); assay: PROTAC activity at ATR/CRBN in patient derived human MIA PaCa-2 cells assessed as reduction in protein level at 2 uM measured after 24 hrs by immunoblot analysis relative to irinotecan; assay type: cell-based; set-up: scale not given: the % may be the effect or the level left
[20] = target: T2, Protein cereblon/Serine/threonine-protein kinase ATR (Homo sapiens); assay: PROTAC activity at ATR/CRBN in patient derived human MIA PaCa-2 cells assessed as reduction in protein level at 500 nM measured after 24 hrs by immunoblot analysis relative to untreated control; assay type: cell-based; set-up: scale not given: the % may be the effect or the level left
[21] = tested on: MIA PaCa-2; assay: Effect on GSPT1 expression in human MIA PaCa-2 cells at 0.5 to 2 uM incubated for 24 hrs by immunoblot analysis; assay type: functional, cell-based; details: dose 0.5-2 µM
[22] = target: ATR/ATRIP (Homo sapiens, UniProt Q13535); assay: Inhibition of human ATR/ATRIP complex using GST-cMyc-p53 substrate measured after 30 mins by HTRF based non-radioactive in vitro assay; assay type: protein-complex assay
[23] = tested on: HeLa; assay: Effect on DNA-PKcs expression in human HeLa cells at 500 nM incubated for 24 hrs by immunoblot analysis; assay type: functional, cell-based
[24] = Plasma stability in human plasma assessed as compound remaining at 20 uM measured after 24 hrs by HPLC analysis; assay type: ADME, cell-free; details: read-out: Stability
[25] = Plasma protein binding in human plasma; assay type: ADME, cell-free; details: read-out: PPB (converted)
[26] = target: T2, Protein cereblon/Serine/threonine-protein kinase ATR (Homo sapiens); assay: PROTAC activity at ATR/CRBN in patient derived human MIA PaCa-2 cells assessed as reduction in irinotecan-induced p-CHK1 (S345) level at 2 uM measured after 24 hrs by immunoblot analysis relative to control; assay type: cell-based
[27] = tested on: MIA PaCa-2; assay: Induction of apoptosis in human MIA PaCa-2 cells assessed as cell death at 2 uM incubated for 24 hrs by Annexin-V/PI based flow cytometry; assay type: functional
[28] = target: T2, Protein cereblon/Serine/threonine-protein kinase ATR (Homo sapiens); assay: PROTAC activity at ATR/CRBN in patient derived human MIA PaCa-2 cells assessed as reduction in protein level at 2 uM measured after 3 hrs in presence of 10 uM MG132 by immunoblot analysis; assay type: cell-based
[29] = target: T2, Protein cereblon/Serine/threonine-protein kinase ATR (Homo sapiens); assay: PROTAC activity at ATR/CRBN in patient derived human MIA PaCa-2 cells assessed as reduction in protein level at 0.1 to 5 uM measured after 24 hrs by immunoblot analysis relative to untreated control; assay type: cell-based; details: dose 0.1-5 µM
[30] = tested on: MIA PaCa-2; assay: Induction of […] degradation in patient derived human MIA PaCa-2 cells assessed as reduction in protein level at 2 uM measured after 24 hrs by immunoblot analysis; assay type: functional, cell-based

T2 sequence (Q13535 whole entry, looked up): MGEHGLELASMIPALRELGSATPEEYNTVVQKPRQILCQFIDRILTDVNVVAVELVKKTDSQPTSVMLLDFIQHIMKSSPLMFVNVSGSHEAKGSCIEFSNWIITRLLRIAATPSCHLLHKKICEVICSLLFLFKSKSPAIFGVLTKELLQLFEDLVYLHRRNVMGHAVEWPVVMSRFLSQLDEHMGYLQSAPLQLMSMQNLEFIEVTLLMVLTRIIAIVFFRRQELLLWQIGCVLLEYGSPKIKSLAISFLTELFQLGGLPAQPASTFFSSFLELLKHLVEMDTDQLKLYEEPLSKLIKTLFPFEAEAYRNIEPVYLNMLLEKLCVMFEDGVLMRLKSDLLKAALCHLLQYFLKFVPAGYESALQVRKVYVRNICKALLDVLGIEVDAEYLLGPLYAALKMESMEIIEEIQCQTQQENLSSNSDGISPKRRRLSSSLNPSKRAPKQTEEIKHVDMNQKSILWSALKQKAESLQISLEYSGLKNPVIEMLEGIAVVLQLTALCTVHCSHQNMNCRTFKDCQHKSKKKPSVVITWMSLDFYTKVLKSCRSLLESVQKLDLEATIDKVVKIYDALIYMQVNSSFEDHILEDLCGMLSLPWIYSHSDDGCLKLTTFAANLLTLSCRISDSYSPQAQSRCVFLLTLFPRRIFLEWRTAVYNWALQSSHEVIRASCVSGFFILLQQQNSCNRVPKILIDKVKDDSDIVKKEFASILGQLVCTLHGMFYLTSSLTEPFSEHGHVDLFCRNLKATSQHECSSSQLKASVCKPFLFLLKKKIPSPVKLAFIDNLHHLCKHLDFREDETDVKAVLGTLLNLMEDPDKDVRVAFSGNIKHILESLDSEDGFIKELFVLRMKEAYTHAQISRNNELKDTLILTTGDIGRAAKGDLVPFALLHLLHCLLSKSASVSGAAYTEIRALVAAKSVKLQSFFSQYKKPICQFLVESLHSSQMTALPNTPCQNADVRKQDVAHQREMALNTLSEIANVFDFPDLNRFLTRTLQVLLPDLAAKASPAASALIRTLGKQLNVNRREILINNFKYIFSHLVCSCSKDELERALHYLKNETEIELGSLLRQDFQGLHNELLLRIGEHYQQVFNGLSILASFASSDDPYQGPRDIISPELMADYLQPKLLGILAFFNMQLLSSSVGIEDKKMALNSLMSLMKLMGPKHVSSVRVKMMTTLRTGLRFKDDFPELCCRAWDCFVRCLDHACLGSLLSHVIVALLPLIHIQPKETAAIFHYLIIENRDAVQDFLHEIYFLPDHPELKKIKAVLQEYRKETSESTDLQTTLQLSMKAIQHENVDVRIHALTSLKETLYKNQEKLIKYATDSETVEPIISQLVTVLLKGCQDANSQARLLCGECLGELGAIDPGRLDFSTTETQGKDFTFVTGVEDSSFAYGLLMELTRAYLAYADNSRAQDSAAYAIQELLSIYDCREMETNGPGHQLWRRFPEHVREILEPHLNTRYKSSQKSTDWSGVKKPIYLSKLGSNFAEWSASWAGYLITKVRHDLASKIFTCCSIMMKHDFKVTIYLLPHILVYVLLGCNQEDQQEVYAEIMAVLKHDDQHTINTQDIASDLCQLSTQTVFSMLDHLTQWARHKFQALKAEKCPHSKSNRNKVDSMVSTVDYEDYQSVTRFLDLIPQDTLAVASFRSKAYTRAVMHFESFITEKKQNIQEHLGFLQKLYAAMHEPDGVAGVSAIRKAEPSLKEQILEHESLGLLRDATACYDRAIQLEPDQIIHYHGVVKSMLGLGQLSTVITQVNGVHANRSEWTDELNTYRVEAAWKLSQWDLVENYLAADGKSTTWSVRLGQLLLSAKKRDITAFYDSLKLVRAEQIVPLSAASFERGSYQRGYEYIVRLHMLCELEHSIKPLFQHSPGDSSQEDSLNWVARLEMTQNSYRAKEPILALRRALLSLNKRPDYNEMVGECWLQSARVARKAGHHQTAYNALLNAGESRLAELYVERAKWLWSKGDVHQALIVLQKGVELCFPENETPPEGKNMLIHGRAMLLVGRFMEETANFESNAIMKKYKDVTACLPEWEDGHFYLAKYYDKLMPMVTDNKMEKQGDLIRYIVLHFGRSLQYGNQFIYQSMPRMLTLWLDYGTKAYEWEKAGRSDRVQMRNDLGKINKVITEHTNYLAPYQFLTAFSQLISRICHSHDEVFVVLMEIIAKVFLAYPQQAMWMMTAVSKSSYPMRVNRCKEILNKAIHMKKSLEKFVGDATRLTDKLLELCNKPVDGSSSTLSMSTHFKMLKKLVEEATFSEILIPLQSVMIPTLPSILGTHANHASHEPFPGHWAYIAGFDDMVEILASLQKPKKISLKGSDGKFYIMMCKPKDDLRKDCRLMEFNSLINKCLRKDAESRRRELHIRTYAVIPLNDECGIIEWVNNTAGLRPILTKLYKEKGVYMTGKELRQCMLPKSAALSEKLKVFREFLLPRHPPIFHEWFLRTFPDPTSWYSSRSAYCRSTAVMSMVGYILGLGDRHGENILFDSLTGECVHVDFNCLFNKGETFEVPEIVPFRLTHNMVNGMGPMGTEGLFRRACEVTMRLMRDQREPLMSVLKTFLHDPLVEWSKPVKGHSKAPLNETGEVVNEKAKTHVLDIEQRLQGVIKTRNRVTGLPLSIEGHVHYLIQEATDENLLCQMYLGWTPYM
T2 sequence (Q96SW2 whole entry, looked up): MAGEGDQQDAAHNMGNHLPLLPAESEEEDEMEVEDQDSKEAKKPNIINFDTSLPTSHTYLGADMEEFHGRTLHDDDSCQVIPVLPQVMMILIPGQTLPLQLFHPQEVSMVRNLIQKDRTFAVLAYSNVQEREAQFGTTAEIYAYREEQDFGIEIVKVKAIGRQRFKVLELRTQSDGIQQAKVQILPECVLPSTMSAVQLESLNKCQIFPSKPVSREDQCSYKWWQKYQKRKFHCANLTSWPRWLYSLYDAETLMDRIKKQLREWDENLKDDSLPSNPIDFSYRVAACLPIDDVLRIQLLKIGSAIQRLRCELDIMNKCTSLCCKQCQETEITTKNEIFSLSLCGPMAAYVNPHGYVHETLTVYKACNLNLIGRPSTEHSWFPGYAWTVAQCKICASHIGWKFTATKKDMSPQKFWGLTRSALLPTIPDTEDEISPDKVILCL
T1 sequence (P40337 whole entry, looked up): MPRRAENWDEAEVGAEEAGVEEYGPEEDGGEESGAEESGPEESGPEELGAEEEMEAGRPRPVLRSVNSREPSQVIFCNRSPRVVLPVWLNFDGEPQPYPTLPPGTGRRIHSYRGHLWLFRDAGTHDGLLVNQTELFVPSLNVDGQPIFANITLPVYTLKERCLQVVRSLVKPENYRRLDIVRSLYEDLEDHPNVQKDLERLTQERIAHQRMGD
T1 sequence (Q13535 whole entry, looked up): as the sequence (Q13535 whole entry, looked up) above
Chain of ATR/ATRIP (Q13535 whole entry): as the sequence (Q13535 whole entry, looked up) above
Chain of ATR/ATRIP (Q8WXE1 whole entry, further chain): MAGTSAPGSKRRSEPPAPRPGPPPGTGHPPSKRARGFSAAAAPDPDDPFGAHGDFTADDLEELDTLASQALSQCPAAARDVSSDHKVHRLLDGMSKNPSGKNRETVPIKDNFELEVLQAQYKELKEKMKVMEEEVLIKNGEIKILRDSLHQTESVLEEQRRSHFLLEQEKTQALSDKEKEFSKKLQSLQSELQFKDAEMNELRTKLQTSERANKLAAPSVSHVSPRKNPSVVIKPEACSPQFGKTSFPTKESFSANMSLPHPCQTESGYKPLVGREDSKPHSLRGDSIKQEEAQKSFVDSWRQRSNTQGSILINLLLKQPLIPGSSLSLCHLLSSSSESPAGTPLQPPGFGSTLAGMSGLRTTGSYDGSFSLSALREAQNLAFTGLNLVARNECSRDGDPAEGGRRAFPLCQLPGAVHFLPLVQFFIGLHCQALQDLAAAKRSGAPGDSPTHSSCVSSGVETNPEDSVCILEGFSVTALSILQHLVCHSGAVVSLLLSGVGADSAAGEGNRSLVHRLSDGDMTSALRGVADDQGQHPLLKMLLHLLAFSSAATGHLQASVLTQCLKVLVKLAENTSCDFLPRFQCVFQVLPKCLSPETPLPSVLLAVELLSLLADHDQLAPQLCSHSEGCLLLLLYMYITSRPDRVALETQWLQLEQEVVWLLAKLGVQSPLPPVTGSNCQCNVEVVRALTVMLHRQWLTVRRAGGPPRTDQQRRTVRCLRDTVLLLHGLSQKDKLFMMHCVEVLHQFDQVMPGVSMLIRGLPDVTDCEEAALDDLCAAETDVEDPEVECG

Compound	remaining at 72 h [3] [%]	remaining at 48 h [4] [%]	remaining at 12 h [5] [%]	remaining at 24 h [6] [%]	viability at 50 µM [7] [%]	remaining at 6 h [8] [%]	also measured
Cc1ncsc1-c1ccc(CNC(=O)[C@@H]2C[C@@H](O)CN2C(=O)[C@@H](NC(=O)CCOCCOCCOCCNS(=O)(=O)c2ccc(-c3cnc(N)c(C(=O)Nc4ccccc4)n3)cc2)C(C)(C)C)cc1	105	103	100	102	45.7	100	Activity [1]: inactive; Activity [2]: inactive
Nc1ncc(-c2ccc(S(=O)(=O)NCCCCCCC(=O)NCCCC#Cc3cccc4c3CN(C3CCC(=O)NC3=O)C4=O)cc2)nc1C(=O)Nc1ccccc1 (stereo unspecified)	109	105	103	105	109	102	Activity [9]: Active
Cc1ncsc1-c1ccc(CNC(=O)[C@@H]2C[C@@H](O)CN2C(=O)[C@@H](NC(=O)CCOCCOCCNS(=O)(=O)c2ccc(-c3cnc(N)c(C(=O)Nc4ccccc4)n3)cc2)C(C)(C)C)cc1	102	101	100	101	44.5	100	Activity [1]: inactive; Activity [2]: inactive
CCc1c2c(nc3ccc(OC(=O)N4CCC(N5CCCCC5)CC4)cc13)-c1cc3c(c(=O)n1C2)COC(=O)[C@]3(O)CC							Activity [10]: inactive
Nc1ncc(-c2ccc(S(=O)(=O)NCCCCCC(=O)N3CCN(c4ccc5c(c4)C(=O)N(C4CCC(=O)NC4=O)C5=O)CC3)cc2)nc1C(=O)Nc1ccccc1 (stereo unspecified)	72	87	101	96	96	101	Activity [11]: 40%
Cc1ncsc1-c1ccc(CNC(=O)[C@@H]2C[C@@H](O)CN2C(=O)[C@@H](NC(=O)CCCCCNS(=O)(=O)c2ccc(-c3cnc(N)c(C(=O)Nc4ccccc4)n3)cc2)C(C)(C)C)cc1	100	100	99	100	60.3	99	Activity [1]: inactive; Activity [2]: inactive
Nc1ncc(-c2ccc(S(=O)(=O)NCCCCCC(=O)NCCCC#Cc3cccc4c3CN(C3CCC(=O)NC3=O)C4=O)cc2)nc1C(=O)Nc1ccccc1 (stereo unspecified)	115	110	104	106	77.1	102	Activity [12]: inactive; Activity [13]: inactive; Activity [14]: 60%; Activity [15]: inactive; Activity [16]: 60%; fold change (FC) [17]: 0.1; Activity [18]: 40%; Activity [19]: 80%; Activity [20]: 40%; Activity [21]: inactive; IC50 [22]: > 10000 nM; Activity [23]: inactive; remaining at 24 h, 20 µM [24]: 75%; fraction unbound [25]: 0.106; fold change (FC) [26]: 0.5; Activity [27]: inactive; Activity [28]: inactive
Nc1ncc(-c2ccc(S(=O)(=O)NCCCCC(=O)NCCOc3ccc(C4CCC(=O)NC4=O)cc3)cc2)nc1C(=O)Nc1ccccc1 (stereo unspecified)	99	99	101	101	66.4	101	Activity [29]: inactive
CS(=O)(=O)c1ccc(-c2cnc(N)c(C(=O)Nc3ccccc3)n2)cc1							Activity [30]: inactive
CNS(=O)(=O)c1ccc(-c2cnc(N)c(C(=O)Nc3ccccc3)n2)cc1	104	102	100	100	83.7	99	IC50 [22]: 1000 nM; remaining at 24 h, 20 µM [24]: > 92%; fraction unbound [25]: 0.225
Nc1ncc(-c2ccc(S(=O)(=O)NCCCCCC(=O)N3CCN(c4ccc5c(c4)C(=O)N(C4CCC(=O)NC4=O)C5=O)CC3)cc2)nc1-c1nnc(-c2ccccc2)o1 (stereo unspecified)	73	80	92	90	85.6	96	Activity [29]: inactive
